From US8912360B2, “Methods for preparing ritodrine hydrochloride” (Lundbeck Pharmaceuticals Italy S.p.A., priority 2010, dated 2014) come the findings set out here.

Molecules are shown by their SMILES.

A short description of the data set: Stability / hygroscopicity: water content through Karl Fischer titration after storage. The format is physicochemical. As to conditions: for hygroscopicity: hydrochloride. The method, then:
The water content was determined through Karl Fischer (KF) titration.
Ritodrine hydrochloride Form I is kept at 40° C. and a relative humidity of 75% for 24 hours. The water content measured through Karl Fischer titration is 0.5% (weight/weight).
Ritodrine hydrochloride Form II is placed in a double polyethylene bag with a desiccant (silica gel) kept in standard conditions for storing active ingredients. After some months the water content of such Ritodrine hydrochloride measured through Karl Fischer titration is 2.2% (weight/weight).

For the molecule `C[C@@H](NCCc1ccc(O)cc1)[C@@H](O)c1ccc(O)cc1.Cl` (racemic) [Ritodrine hydrochloride Form I, 4-((1RS,2SR)-1-hydroxy-2-{[2-(4-hydroxyphenyl)ethyl]amino}propyl)phenol hydrochloride], the hygroscopicity entry is on record as “non-hygroscopic”. In addition, where the note is “exposed to a relative humidity of 75%”, the water absorption entry is “does not absorb water”. Moreover, the “water content measured through Karl Fischer titration” value (kept at 40° C. and a relative humidity of 75% for 24 hours) is given as 0.5 % (weight/weight).

Regarding `C[C@@H](NCCc1ccc(O)cc1)[C@@H](O)c1ccc(O)cc1.Cl` (racemic) [Ritodrine hydrochloride Form II, 4-((1RS,2SR)-1-hydroxy-2-{[2-(4-hydroxyphenyl)ethyl]amino}propyl)phenol hydrochloride], the hygroscopicity entry is on record as “hygroscopic”. Also, under “double polyethylene bag with a desiccant (silica gel), standard conditions for storing active ingredients, after some months”, the “water content measured through Karl Fischer titration” value is on record as 2.2 % (weight/weight). For the setting “not exposed directly to a humid environment, normal controlled storing conditions”, the water absorption result is listed as “absorbs water”.
